Test results taken from PubChem BioAssay AID248 (DTP/NCI, 2004).
“And” between values parts separate entries of the source, which are not always exact repeats. Equal entries are not always repeated. Toxic doses and inconclusive results are not listed.

Test system: L1210 leukemia ip in BDF1 mice, survival T/C
Assay: NCI In Vivo Anticancer Drug Screen. Data for tumor model L1210 Leukemia (intraperitoneal) in B6D2F1 (BDF1) mice
Settings: endpoint: mean survival time, higher = longer survival
Outline: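 Tumor was transplanted into mice, which were then dosed with test compound or vehicle alone. Survival was recorded for each group, and the treated figure was expressed relative to the control figure.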

[1] = dose: 100.0 mg/kg/injection, schedule: Q01DX001 (ip), vehicle: saline
[2] = dose: 200.0 mg/kg/injection, schedule: Q01DX001 (ip), vehicle: saline
[3] = dose: 400.0 mg/kg/injection, schedule: Q01DX001 (ip), vehicle: saline
[4] = dose: 100.0 mg/kg/injection, schedule: Q01DX001 (ip), vehicle: Klucel (hydroxypropylcellulose) (HPC)
[5] = dose: 200.0 mg/kg/injection, schedule: Q01DX001 (ip), vehicle: Klucel (hydroxypropylcellulose) (HPC)
[6] = dose: 400.0 mg/kg/injection, schedule: Q01DX001 (ip), vehicle: Klucel (hydroxypropylcellulose) (HPC)

COc1cc2c(cc1OC)C(OC)N(C)c1c-2ccc2cc3c(cc12)OCO3 (stereo unspecified)
T/C (dose: 5.0 mg/kg/injection, schedule: Q01DX009 (ip), vehicle: Klucel (hydroxypropylcellulose) (HPC)): 106 % of control | T/C (dose: 10.0 mg/kg/injection, schedule: Q01DX009 (ip), vehicle: Klucel (hydroxypropylcellulose) (HPC)): 106 % of control | T/C (dose: 10.0 mg/kg/injection, schedule: Q01DX009 (ip), vehicle: saline): 123 % of control | T/C (dose: 20.0 mg/kg/injection, schedule: Q01DX009 (ip), vehicle: Klucel (hydroxypropylcellulose) (HPC)): 95 % of control | T/C (dose: 20.0 mg/kg/injection, schedule: Q01DX009 (ip), vehicle: steriod suspending solution): 163 % of control | T/C (dose: 20.0 mg/kg/injection, schedule: Q04DX003 (ip), vehicle: saline): 123 % of control | T/C (dose: 40.0 mg/kg/injection, schedule: Q01DX009 (ip), vehicle: Klucel (hydroxypropylcellulose) (HPC)): 113 % of control | T/C (dose: 40.0 mg/kg/injection, schedule: Q04DX003 (ip), vehicle: saline): 121 % of control | T/C (dose: 80.0 mg/kg/injection, schedule: Q01DX009 (ip), vehicle: Klucel (hydroxypropylcellulose) (HPC)): 111 % of control | T/C (dose: 80.0 mg/kg/injection, schedule: Q04DX003 (ip), vehicle: saline): 124 % of control | T/C (dose: 100.0 mg/kg/injection, schedule: Q04DX002 (ip), vehicle: Klucel (hydroxypropylcellulose) (HPC)): 118 % of control and 119 % of control | T/C (dose: 100.0 mg/kg/injection, schedule: Q04DX003 (ip), vehicle: Klucel (hydroxypropylcellulose) (HPC)): 116 % of control | T/C (dose: 160.0 mg/kg/injection, schedule: Q01DX009 (ip), vehicle: Klucel (hydroxypropylcellulose) (HPC)): 109 % of control | T/C (dose: 160.0 mg/kg/injection, schedule: Q04DX003 (ip), vehicle: saline): 112 % of control | T/C (dose: 200.0 mg/kg/injection, schedule: Q01DX009 (ip), vehicle: Klucel (hydroxypropylcellulose) (HPC)): 122 % of control | T/C (dose: 200.0 mg/kg/injection, schedule: Q04DX002 (ip), vehicle: Klucel (hydroxypropylcellulose) (HPC)): 123 % of control | T/C (dose: 200.0 mg/kg/injection, schedule: Q04DX003 (ip), vehicle: Klucel (hydroxypropylcellulose) (HPC)): 111 % of control | T/C (dose: 320.0 mg/kg/injection, schedule: Q01DX009 (ip), vehicle: Klucel (hydroxypropylcellulose) (HPC)): 111 % of control | T/C (dose: 400.0 mg/kg/injection, schedule: Q01DX009 (ip), vehicle: Klucel (hydroxypropylcellulose) (HPC)): 124 % of control | T/C (dose: 400.0 mg/kg/injection, schedule: Q04DX002 (ip), vehicle: Klucel (hydroxypropylcellulose) (HPC)): 152 % of control | T/C (dose: 400.0 mg/kg/injection, schedule: Q04DX003 (ip), vehicle: Klucel (hydroxypropylcellulose) (HPC)): 106 % of control

Cc1ccccc1NC(=S)Nc1ccccc1
T/C (dose: 100.0 mg/kg/injection, schedule: Q04DX002 (ip), vehicle: gum acacia): 96 % of control | T/C (dose: 200.0 mg/kg/injection, schedule: Q04DX002 (ip), vehicle: gum acacia): 96 % of control | T/C (dose: 400.0 mg/kg/injection, schedule: Q04DX002 (ip), vehicle: gum acacia): 89 % of control

O=C(OCc1ccc([N+](=O)[O-])o1)c1ccc(Cl)cc1
T/C [1]: 97 % of control | T/C [2]: 101 % of control | T/C [3]: 92 % of control

O=C(Nc1ncn[nH]1)C(Cl)(Cl)Cl
T/C (dose: 100.0 mg/kg/injection, schedule: Q04DX003 (ip), vehicle: carboxymethylcellulose (CMC)): 95 % of control | T/C (dose: 200.0 mg/kg/injection, schedule: Q04DX003 (ip), vehicle: carboxymethylcellulose (CMC)): 100 % of control | T/C (dose: 400.0 mg/kg/injection, schedule: Q04DX003 (ip), vehicle: carboxymethylcellulose (CMC)): 97 % of control

CCC1([N+](=O)[O-])COCOC1
T/C (dose: 6.25 mg/kg/injection, schedule: Q04DX003 (ip), vehicle: Klucel (hydroxypropylcellulose) (HPC)): 96 % of control | T/C (dose: 12.5 mg/kg/injection, schedule: Q04DX003 (ip), vehicle: Klucel (hydroxypropylcellulose) (HPC)): 111 % of control | T/C (dose: 25.0 mg/kg/injection, schedule: Q04DX003 (ip), vehicle: Klucel (hydroxypropylcellulose) (HPC)): 96 % of control and 111 % of control

Cc1cc(C)c(C2=C(Br)C(=O)C(c3c(C)cc(C)c(C)c3C)=C(Br)C2=O)c(C)c1C
T/C [4]: 98 % of control | T/C [5]: 103 % of control | T/C [6]: 98 % of control

CC1(C)CC2(OC2c2cccc([N+](=O)[O-])c2)C(=O)c2ccccc21 (stereo unspecified)
T/C [4]: 90 % of control | T/C [5]: 95 % of control | T/C [6]: 92 % of control

COC(=O)c1ccccc1NN=Nc1ccccc1Cl
T/C [1]: 100 % of control | T/C (dose: 100.0 mg/kg/injection, schedule: Q04DX003 (ip), vehicle: saline): 105 % of control | T/C [2]: 90 % of control | T/C (dose: 200.0 mg/kg/injection, schedule: Q04DX003 (ip), vehicle: saline): 95 % of control | T/C [3]: 99 % of control | T/C (dose: 400.0 mg/kg/injection, schedule: Q04DX003 (ip), vehicle: saline): 94 % of control

CCS(=O)(=O)c1ccc(NC(=O)OC2CCC3(C)C(=CCC4C3CCC3(C)C(C(C)CCCC(C)C)CCC43)C2)cc1 (stereo unspecified)
T/C (dose: 100.0 mg/kg/injection, schedule: Q01DX001 (sc), vehicle: steriod suspending solution): 97 % of control | T/C (dose: 200.0 mg/kg/injection, schedule: Q01DX001 (sc), vehicle: steriod suspending solution): 100 % of control | T/C (dose: 400.0 mg/kg/injection, schedule: Q01DX001 (sc), vehicle: steriod suspending solution): 94 % of control

CCC(=O)NCC1(c2ccccc2)CCN(CCCC(=O)c2ccc(F)cc2)CC1
T/C (dose: 25.0 mg/kg/injection, schedule: Q01DX009 (ip), vehicle: saline): 121 % of control | T/C (dose: 50.0 mg/kg/injection, schedule: Q01DX009 (ip), vehicle: saline): 113 % of control | T/C (dose: 100.0 mg/kg/injection, schedule: Q01DX009 (ip), vehicle: saline): 121 % of control
